Experimental data taken from PMC7395068, “The evolution of strategies to minimise the risk of human drug-induced liver injury (DILI) in drug discovery and development” (Archives of Toxicology, 2020).
Like-named read-outs stand apart in the source and are kept apart here.

What was measured:
HepaRG spheroids = test: Combined HCI (HCS) and cellular ATP 3D assay in HepaRG spheroids; conditions: for AC50 / minimal effective concentration: Homo sapiens
[1] = in vivo; cited from earlier work
PHH [2] = conditions: cited from earlier work
HepG2 = test system: HepG2; parameters: method as in Albrecht 2019; conditions: In vitro Assay; ref Albrecht 2019; cited from earlier work
[3] = plasma free fraction; cited from earlier work
HepG2 cells [4] = conditions: cited from earlier work
[5] = Plasma free fraction (fu) and unbound Cmax (Cmax,u); type: in vitro ADME, human; conditions: unbound plasma Cmax
[6] = test system: THLE or HepG2 cells, isolated mitochondria, BSEP; conditions: cited from earlier work
HepG2 cells [7] = conditions: cited from earlier work; remark: listed apart in the source
[8] = in vivo; cited from earlier work; remark: listed apart in the source
PHH 3D spheroids = test system: PHH 3D spheroids; parameters: method as in Bell et al. 2018; conditions: 14-day exposure, three donors, ref Bell et al. 2018; cited from earlier work
hLiMTs [9] = conditions: cited from earlier work
RMPCC's = conditions: In vitro Assay; ref Khetani 2012; cited from earlier work
PHH [10] = conditions: In vitro Assay; ref Albrecht 2019; cited from earlier work
HepG2 cells [11] = conditions: cited from earlier work; remark: listed apart in the source
PHH spheroids = conditions: cited from earlier work
[12] = test system: THLE-Null and THLE-3A4 cells; conditions: In vitro Assay; ref Gustafsson 2014; cited from earlier work
hu-MPCC = conditions: In vitro Assay; ref Khetani 2012; cited from earlier work
[13] = read-out: Human plasma Cmax; total plasma Cmax.tot, median of 9 literature references; cited from earlier work
[14] = test system: primary human hepatocytes, NIH3T3 fibroblasts, BSEP, CYP3A4; conditions: cited from earlier work
[15] = in vivo; cited from earlier work; remark: listed apart in the source
hLiMTs [16] = test: Combined HCI (HCS) and cellular ATP 3D assay in hLiMTs; conditions: for AC50 / minimal effective concentration: Homo sapiens
human hepatocytes = conditions: cited from earlier work
[17] = test system: isolated mouse liver mitochondria; conditions: In vitro Assay; ref Porceddu 2012; cited from earlier work
[18] = Microtissue model structural based (HCI), combined HCS and ATP, MEC < 25 × Cmax.tot cut-off
[19] = In vitro Assay, ref Proctor 2017
[20] = In vitro Assay, ref Schadt 2015

HepaRG <25x Avg Cmax ATP (HepaRG spheroids; HepaRG, ATP endpoint, cut-off <25x Avg Cmax): +ve
HepaRG <100x Avg Cmaxu ATP (HepaRG spheroids; HepaRG, ATP endpoint, cut-off <100x Avg Cmaxu): -ve
HepaRG <25x Avg Cmax HCS (HepaRG spheroids; HepaRG, HCS endpoints, cut-off <25x Avg Cmax): +ve
HepaRG <100x Avg Cmaxu HCS (HepaRG spheroids; HepaRG, HCS endpoints, cut-off <100x Avg Cmaxu): -ve
HepaRG <25x Avg Cmax All (HepaRG spheroids; HepaRG, all endpoints (ATP and HCS), cut-off <25x Avg Cmax): +ve
HepaRG Cmax max All (HepaRG spheroids; HepaRG, all endpoints, Cmax max used): +ve
HepaRG Cmax min All (HepaRG spheroids; HepaRG, all endpoints, Cmax min used): +ve
HepaRG <10 uM All (HepaRG spheroids; HepaRG, all endpoints, cut-off <10 uM): -ve
HepaRG <100x Avg Cmaxu All (HepaRG spheroids; HepaRG, all endpoints, cut-off <100x Avg Cmaxu): -ve
Human plasma Cmax,u [5]: 0.101 µM
hLiMTs <25x Avg Cmax ATP (hLiMTs [16]; hLiMTs, ATP endpoint, cut-off <25x Avg Cmax): +ve
hLiMTs <100x Avg Cmaxu ATP (hLiMTs [16]; hLiMTs, ATP endpoint, cut-off <100x Avg Cmaxu): -ve
hLiMTs <25x Avg Cmax HCS (hLiMTs [16]; hLiMTs, HCS endpoints, cut-off <25x Avg Cmax): +ve
hLiMTs <100x Avg Cmaxu HCS (hLiMTs [16]; hLiMTs, HCS endpoints, cut-off <100x Avg Cmaxu): -ve
hLiMTs <25x Avg Cmax All (hLiMTs [16]; hLiMTs, all endpoints (ATP and HCS), cut-off <25x Avg Cmax): +ve
hLiMTs Cmax max All (hLiMTs [16]; hLiMTs, all endpoints, Cmax max used): +ve
hLiMTs Cmax min All (hLiMTs [16]; hLiMTs, all endpoints, Cmax min used): +ve
hLiMTs <10 uM All (hLiMTs [16]; hLiMTs, all endpoints, cut-off <10 uM): -ve
hLiMTs <100x Avg Cmaxu All (hLiMTs [16]; hLiMTs, all endpoints, cut-off <100x Avg Cmaxu): -ve
SMILES: O=C(O)Cc1ccccc1Nc1c(Cl)cccc1Cl [diclofenac]
AC50 (HepaRG spheroids; HepaRG, read-out: ATP endpoint AC50): 78 µM
minimal effective concentration (HepaRG spheroids; HepaRG, read-out: ATP endpoint MEC): 38.2 µM
AC50 (HepaRG spheroids; HepaRG, read-out: HCS endpoint AC50): 98.6 µM
minimal effective concentration (HepaRG spheroids; HepaRG, read-out: HCS endpoint MEC): 42.9 µM
DILI prediction HepaRG spheroids (HCS-MEC) (HepaRG spheroids; [18]): +VE (MEC < 25 × Cmax.tot cut-off)
DILI +VE (5-8), DILI -VE (-4) [1]: +VE
DILI severity category (Chen et al. [2016]) [1]: Most
PHH/100uM, Proctor (2017) (PHH [2]; 2D PHH, ATP, IC50 threshold 100 µM, ref Proctor et al. 2017): -VE
PHH ATP <100uM (PHH [2]; [19]): -VE
Cytotoxicity HepG2 48 hrs (HepG2): +VE
fu [3]: 0.010
Structural based (HCI) (HepG2 cells [4]; In vitro Assay, ref Persson 2013): -VE
Cluser analysis (HepG2 cells [4]): -VE
DILI in vitro assay prediction, Persson (2013) (HepG2 cells [4]): -VE
Ro2 Hybrid HRM Score [6]: +VE
Structural based (HCI) (HepG2 cells [7]; In vitro Assay, ref O'Brien 2006): +VE
DILI in vitro assay prediction, O'Brien (2006) (HepG2 cells [7]): +VE (key: +VE: lowest HCI endpoint IC50 (or in the absence of dose–response < 100 µM) < 30 × total human plasma exposure levels (Cmax.tot))
Assigned DILI category [8]: 3
In vivo DILI [8]: +VE
detection at 10 × Cmax.tot cut-off (PHH 3D spheroids): only detected by one of three donors
hLiMTs ATP <100uM (hLiMTs [9]; [19]): +VE (IC50 threshold of 100 µM)
hLiMTs/100uM, Proctor (2017) (hLiMTs [9]; hLiMTs, ATP, IC50 threshold 100 µM, ref Proctor et al. 2017): +VE (IC50 threshold of 100 µM)
RMPCC's (RMPCC's): +VE
Cytotoxicity PHH 48 hrs (PHH [10]): +VE
Structural based (HCI) (HepG2 cells [11]; In vitro Assay, ref Tolosa 2012): +VE
DILI in vitro assay prediction, Tolosa (2012) (HepG2 cells [11]): +VE
hLiMTs ATP <20 x Cmax (PHH spheroids; In vitro Assay, ref Vorrink 2018): +VE (IC20 < 20 × Cmax.tot cut-off)
DILI in vitro assay prediction, Vorrink (2018) (PHH spheroids): +VE (key: +VE: IC20 < 20 × Cmax.tot cut-off)
THLE-Null [12]: +VE
HMPCC's (hu-MPCC): +VE
Cmax [13]: 10.1 µM
DILI in vitro assay prediction, Schadt (2015) ([14]; BSEP & Metabolism based, ref Schadt et al. 2015): +VE
Cellular toxicity (3T3 cells) [14, 20]: -VE
Combined Assay [14, 20]: +VE
GSH adduct HML [14, 20]: +VE
Hepatocyte cellular toxicity [14, 20]: -VE
MitoTox 3T3 [14, 20]: -VE
TDI CYP3A4 [14, 20]: -VE
hBSEP inhibition [14, 20]: -VE
DILI Score (FDA) (1-8) [15]: 7
AC50 (hLiMTs [16]; read-out: ATP endpoint AC50): 62.1 µM
minimal effective concentration (hLiMTs [16]; read-out: ATP endpoint MEC): 17.2 µM
AC50 (hLiMTs [16]; read-out: HCS endpoint AC50): 293 µM
minimal effective concentration (hLiMTs [16]; read-out: HCS endpoint MEC): 45 µM
DILI prediction hLiMTs (HCS-MEC) (hLiMTs [16]; [18]): +VE (MEC < 25 × Cmax.tot cut-off)
DILI in vitro assay prediction, Xu (2008) (human hepatocytes): +VE
in vitro data EC2<=1x Cmax [17]: +VE
